According to article PMC4365270 (Cancer Chemotherapy and Pharmacology, 2015):

Tested on: chemokine ligand 2 (CCL2, MCP1)
Experiment: Plasma CCL2 ELISA
Format: in vivo, human
Experimental: cIAP-1 levels were measured in tumor tissue and surrogate tissue as available. Peripheral blood mononuclear cells (PBMCs) were analyzed for DEBIO1143-induced cIAP-1 degradation. Plasma native cytokeratin-18 ([…]) or caspase-3 generated cytokeratin-18 fragments (M30), interleukin 8 (IL8), chemokine ligand 2 (CCL2, MCP1), and tumor necrosis factor α (TNFα) were measured by ELISA as markers of epithelial cell death and inflammation on days 1 (predose, 1, 3, 6, and 12 h postdose), 2, and 5. […] For the detection of cIAP-1 in paraffin-embedded human tissue, a validated immunohistochemical (IHC) assay was used. DEBIO1143-induced cIAP-1 degradation was measured in PBMCs using Western blot. Plasma biomarkers were measured through commercial ELISAs. All laboratory analyses were performed by MPI Research, Inc. (PK) and Mosaic Laboratory, LLC (PD).

CN[C@@H](C)C(=O)N[C@H]1CN(C(=O)CC(C)C)CC[C@H]2CC[C@@H](C(=O)NC(c3ccccc3)c3ccccc3)N2C1=O [DEBIO1143]
Patients with increased plasma CCL2 (900 mg): five out of six | Plasma CCL2, mean increase (900 mg, six patients): 45% | Plasma CCL2 increase, range (900 mg, six patients): −6 to 54% | Plasma CCL2 increase, significance (3 and 6 h postdose, p < 0.0001): significant | Patients with increased plasma CCL2 (all dose levels, 25 patients): 14
